Laboratory results as given in patent US5646148A, “HIV protease inhibitors useful for the treatment of AIDS” (Merck & Co., Inc., priority 1995, dated 1997).

Experiments:
HIV protease = target: T1, HIV protease (Human immunodeficiency virus type 1 group M subtype B, UniProt P04585); test: Assay for Inhibition of Microbial Expressed HIV Protease; format: biochemical; details: protease expressed in Eschericia coli; peptide substrate Val-Ser-Gln-Asn-(betanapthyl)Ala-Pro-Ile-Val; 50 mM Na acetate, pH 5.5, 30° C., 1 hour; HPLC
T1 construct: the protease expressed in Eschericia coli; made in house; host or cells: Escherichia coli
Experimental: Inhibition studies of the reaction of the protease expressed in Eschericia coli with a peptide substrate [Val-Ser-Gln-Asn-(betanapthyl)Ala-Pro-Ile-Val, 0.5 mg/mL at the time the reaction is initiated] were in 50 mM Na acetate, pH 5.5, at 30° C. for 1 hour. Various concentrations of inhibitor in 1.0 μl DMSO were added to 25 μl of the peptide solution in water. The reaction is initiated by the addition of 15 μl of 0.33 nM protease (0.11 ng) in a solution of 0.133M Na acetate pH 5.5 and 0.1% bovine serum albumin. The reaction was quenched with 160 μl of 5% phosphoric acid. Products of the reaction were separated by HPLC (VYDAC wide pore 5 cm C-18 reverse phase, acetonitrile gradient, 0.1% phosphoric acid). The extent of inhibition of the reaction was determined from the peak heights of the products.

HIV-1 = test: Cell spread assay: inhibition of the spread of HIV in cell culture (MT-4 T-lymphoid cells, p24); format: cell-based; details: Human immunodeficiency virus 1, 72 h, MT-4 T-lymphoid cells infected with HIV-1 (wild-type), 24 h preincubation, then 3 additional days with inhibitor, read-out: CIC95, inhibitor concentration which reduced the spread of infection by at least 95%
Experimental: Inhibition of the spread of HIV in cell culture was measured according to Nunberg, J. H. et al., J. Virol. 65, 4887 (1991). In this assay, MT-4 T-lymphoid cells were infected with HIV-1 (wild-type, unless otherwise indicated) by using a predetermined inoculum, and cultures were incubated for 24 h. At this time, ≤1% of the cells were positive by indirect immunofluorescence. Cells were then extensively washed and distributed into 96-well culture dishes. Serial twofold dilutions of inhibitor were added to the wells, and cultures were continued for 3 additional days. At 4 days postinfection, 100% of the cells in control cultures were infected. HIV-1 p24 accumulation was directly correlated with virus spread. The cell culture inhibitory concentration was defined as the inhibitor concentration in nanomoles/liter which reduced the spread of infection by at least 95%, or CIC95. The CIC95 for compound A is 25 nM.
INHIBITION OF VIRUS SPREAD
A. Preparation of HIV-infected MT-4 cell Suspension. […]
The concentration of HIV p24 antigen is measured by an enzyme immunoassay, described as follows. Aliquots of p24 antigen to be measured are added to microwells coated with a monoclonal antibody specific for HIV core antigen. […]

Question: `CC(C)(C)NC(=O)C1CN(Cc2cnc3occc3c2)CCN1CC(O)CC(Cc1ccccc1)C(=O)NC1c2ccccc2CC1O` [Compound A, N-(2(R)-hydroxy-1(S)-indanyl)-2(R)-phenylmethyl-4(S)-hydroxy-5-(1-(4-(3-furo[2,3-b]pyridylmethyl)-2(S)-N'-(t-butylcarboxamido)-piperazinyl))pentaneamide] was tested. Which IC50 (HIV protease) did it give?
Answer: The IC50 was about 0.27 nM.

Question: What about the IC95 (HIV-1) of the same molecule?
Answer: The IC95 was 25 nM.
